Laboratory results taken from paper PMC9369311, “Examination of Intracellular GPCR-Mediated Signaling with High Temporal Resolution” (International Journal of Molecular Sciences, 2022).
Values joined by “and” are separate entries in the source; they are usually repeats but may differ in a detail not shown here. Identical values can stand only once. “Also recorded” adds a separate entry of the source.

Assays:
[1] = target: T1, CNGA2 channel (Bos taurus, UniProt Q03041, T537M); test: Stopped-flow flash photolysis of caged cAMP in Fluo-4-loaded flpTM-DmOctβ1 cells; type: cell-based, bovine; settings: for cAMP released by photolysis: based on quantum yield
T1 construct: host or cells: HEK293 flpIn cells (Invitrogen #750-07)
T1 sequence (Q03041 1-663 T537M): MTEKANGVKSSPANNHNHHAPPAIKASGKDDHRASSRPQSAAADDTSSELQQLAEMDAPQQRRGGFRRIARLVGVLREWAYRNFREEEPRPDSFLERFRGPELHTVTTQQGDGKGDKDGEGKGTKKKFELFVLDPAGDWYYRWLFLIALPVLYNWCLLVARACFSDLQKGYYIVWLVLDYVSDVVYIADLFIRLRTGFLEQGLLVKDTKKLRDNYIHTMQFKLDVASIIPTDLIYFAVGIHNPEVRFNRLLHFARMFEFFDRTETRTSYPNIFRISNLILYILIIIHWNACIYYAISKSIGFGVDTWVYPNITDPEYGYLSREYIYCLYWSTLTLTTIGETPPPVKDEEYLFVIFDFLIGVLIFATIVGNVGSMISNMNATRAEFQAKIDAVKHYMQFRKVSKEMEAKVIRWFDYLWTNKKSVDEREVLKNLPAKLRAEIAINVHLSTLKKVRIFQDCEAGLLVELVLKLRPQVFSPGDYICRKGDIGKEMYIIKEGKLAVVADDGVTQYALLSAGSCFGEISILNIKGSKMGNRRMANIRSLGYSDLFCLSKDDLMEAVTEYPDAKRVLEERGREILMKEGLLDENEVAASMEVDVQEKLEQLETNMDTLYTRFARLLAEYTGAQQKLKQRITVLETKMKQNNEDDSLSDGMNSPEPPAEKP
Description: Neutral density filters that regulate the transmission of light (5%, 25%, 50%, 80%, 100%) were installed, allowing application of different light intensities.
As an integral component of the flpTM-DmOctβ1 cell line, the cAMP-sensitive CNG channel (flpTM; see [32]) enables the detection of cellular cAMP dynamics via mediating cAMP-dependent opening of the channel pore and resulting in Ca^2+ influx. […] A (7-diethylaminocoumarin-4-yl)methyl (DEACM)-modified cAMP was used. The FlpTM-DmOctβ1 cells were loaded with Fluo-4 and DEACM-cAMP. For the stopped-flow measurements, the cells were mixed with ES in the cuvette and after 2 s, a UV-flash was triggered for 10 ms to release cAMP. The fluorescence signals were monitored for 12 s. The time point when triggering the light flash was defined as t = 0. Different concentrations of DEACM-cAMP were used (10 µM, 30 µM, 50 µM, and 100 µM) for loading cells. […] In successive experiments, different light intensities were applied (5%, 25%, 50%, 80%, 100%). The experiments were performed in the presence of 100 µM IBMX to avoid fluctuations in cAMP due to cell-endogenous phosphodiesterases.
For the photolysis of the caged compounds with ultraviolet (UV)-light, a Xe-flash lamp (JML-C2; Rapp Opto Electronics, Wedel, Germany) was coupled to the cuvette via an UV-light permeable light guide (Schott). A UV-2 interference filter was placed between the Xe-flash lamp and light guide to select for the UV-light needed for the photolysis of the caged compounds. Additionally, it prevents the photomultiplier from being hit by light that is able to pass the emission filter. The maximal energy of one light flash at the surface of the cuvette was 107 mJ·cm^−2 (set to C2 and 200 V). Neutral density (ND) filters (AHF Analysentechnik, Tübingen, Germany) could be installed between the interference filter and the Xe-flash lamp to regulate the intensity of the UV-light applied to the cuvette. To maximize the detection of the emission light, a test solution containing 50 nM of fluorescein in ES was added to the cuvette and the light guide was fixed to the Xe/Hg-lamp at a position where the photomultiplier detected maximal intensity.

[2] = tested on: cell endogenous adenylyl cyclases; test: Ca2+ fluorimetry in plate reader (96 MWP), flpTM-DmOctβ1 cells stimulated with NKH477; type: cell-based, human; settings: for logEC50 ± SD: given as logEC50 (negative)
Procedure: In another series of experiments, DmOctβ1 receptor-expressing cell lines were incubated with NKH477, a water soluble agonist of membrane bound adenylyl cyclases, the downstream effectors in DmOctβ1 signaling. Before stimulating the adenylyl cyclase activity, NKH477 has to cross the cell membrane and then binds to the catalytic domain of the enzyme. As before, the flpTM-DmOctβ1 cells were seeded in 96 MWPs and loaded with Fluo-4. In parallel, cells stably co-transfected with GCaMP3.0 were examined (flpTM-DmOctβ1-GCaMP3.0). All of the measurements were performed in the presence of 100 µM IBMX. […] In comparison to the octopamine-evoked responses, the EC50 values for NKH477 differed strongly, with values in the nanomolar range for octopamine and in the micromolar range for NKH477, but confirming the previous data on the octopamine receptors and adenylyl cyclases, respectively. […] Whether this effect was due to differences in the cytosolic distribution of both Ca^2+ detectors and/or the spatial presence of adenylyl cyclase isoforms in membrane domains has not been experimentally addressed.
In this study, we made use of previously established stably transfected cell lines. Briefly, human embryonic kidney cells (HEK293; #85120602, ECACC, Porton Down, Salisbury, UK) were transfected with 10 µg of DmOctα1B receptor-encoding construct by a modified calcium phosphate method. The cell line constitutively expressing the DmOctα1B receptors was propagated in MEM+Glutamax medium containing 10% (v/v) fetal calf serum, 1% (v/v) non-essential amino acids, 1% (v/v) antibiotics/antimycotics, and […] Geneticin (all obtained from ThermoFisher Scientific/Gibco; Dreieich, Germany). A related human embryonic kidney 293-based cell line (HEK293; flpIn cells; Invitrogen/ThermoFisher Scientific; #750-07) that was transfected with a gene encoding a variant of the A2-subunit of the olfactory cyclic nucleotide-gated ion channel (CNG; [31]; flpTM cells, provided by Sibion Biosciences, Jülich, Germany) was transfected with 10 µg of DmOctβ1 receptor-encoding construct. The cell line constitutively expressing the CNG channels and DmOctβ1 receptors was named flpTM-DmOctβ1 and propagated in DMEM+Glutamax medium containing 10% (v/v) fetal calf serum, 1% (v/v) penicillin/streptomycin, and 100 µg/mL Hygromycin, as well as […] Geneticin (all obtained from ThermoFisher Scientific/Gibco). […]
To monitor the intracellular changes of Ca^2+, the cells stably transfected with the genetically encoded calcium indicator GCaMP3.0 (Tian et al., 2009) or loaded with the calcium-sensitive fluorescent dye Fluo-4-AM (Life Technologies/Thermo Fisher Scientific) were analyzed in the plate reader FLUOstar Omega (BMG Labtech, Ortenberg, Germany). […]

[3] = tested on: adenylyl cyclases; test: Stopped-flow Ca2+ fluorescence measurements, flpTM-DmOctβ1 cells, NKH477; type: cell-based, human
Procedure: In successive stopped-flow measurements, the flpTM-DmOctβ1 cells loaded with Fluo-4 were stimulated with increasing octopamine (1 nM–3 µM) and NKH477 (100 nM–300 µM) concentrations. The fluorescence intensities were monitored over 80 s and 100 s, respectively (Figure 4A1,B1). The fluorescence intensities increased and finally reached a plateau with increasing concentrations of both of the ligands. However, the saturating ligand concentrations differed strongly between octopamine (≥300 nM) and NKH477 (≥100 µM). By plotting the maximal changes in fluorescence (ΔF/F0) against ligand concentrations, concentration–response curves were generated and EC50 values were calculated (Figure 4C). […] As observed for the DmOctα1B cell lines (see Figure 3D), the signal response times of flpTM-DmOctβ1 cells were faster at higher ligand concentrations (Figure 4A2,B2). In Figure 4D, the time until the signals were detected (for details, see Materials and Methods, Section 4.4) are plotted for the ligand concentrations covering the calculated EC50 value (dynamic range) and for saturating concentrations (saturating range). The signal response times of the flpTM-DmOctβ1 cells for octopamine were in the range of 30 s (dynamic range) and 6 s (saturating range), whereas the signal detection upon NKH477 application was observed after 50 s (dynamic range) and 16 s (saturating range). The signal response times were about three- to five-fold faster at the saturating concentrations in comparison to the octopamine and NKH477 concentrations in the dynamic range.
As described for the Fluo-4-loaded flpTM-DmOctβ1 cells, similar experiments were performed with the flpTM-DmOctβ1-GCaMP3.0 cells (Figure 5). The cells were successively mixed with increasing concentrations of octopamine (30 pM–100 nM) or NKH477 (30 nM–100 µM) and the fluorescence intensities were recorded over 100 s. For both of the ligands, increasing ligand concentrations led to an increase in the fluorescence emission finally reaching a plateau (Figure 5A1,B1).
For the stopped-flow measurements, the SFM-400 system (BioLogic, Münster, Germany) was used. The main component of the stopped-flow setup is the SFM-400 module with four 10 mL syringes, which can be filled by external valves. The syringes are driven by step motors. The reactants can be mixed in three individual mixing chambers (M1–M3). The volume between M1 and M2 is 21 µL, and 31 µL between M2 and M3. The observation chamber is a quartz cuvette (FC-15) with a reaction volume of 31 µL, installed behind M3. To avoid fluctuations of the reaction mixture in the cuvette, which might lead to noisy and inconsistent signals, a hard stop valve located behind the cuvette can be closed after injection of the reactants. The stopped-flow module is controlled via a MPS-60 control unit (BioLogic). Data acquisition and operation of the system were performed with the Bio-Kine 32 v4.74 software (BioLogic).
The reactions in the cuvette were analyzed via the changes in the fluorescence. A 150 W Xe/Hg-lamp (ALX-220; BioLogic) was used as a light source for the excitation. The excitation light was guided via a light guide towards the cuvette. To determine the wavelength of the excitation light, a 482 nm bandpass filter (482/35 nm BrightLine® single-band bandpass filter; Semrock, Rochester, NY, USA) was used. A heat protection filter (3 mm; KG1, Schott; Mainz, Germany) was placed between the Xe/Hg-lamp and the excitation filter. The fluorescence was detected with a photomultiplier (PMS 200, BioLogic) installed rectangularly to the light path of the excitation light. Between the cuvette and the photomultiplier tube a 535 nm bandpass emission filter (XF3007 535AF35; Horiba, Oberursel, Germany) was placed to select for the emission light being detected by the photomultiplier. A voltage of 600 V was applied to the photomultiplier.
The fluorescence measurements were performed either directly with the cells expressing GCaMP3.0 or after loading the cells with Fluo-4-AM. […]

[4] = flpTM-DmOctβ1-GCaMP3.0 cells, 100 µM IBMX
[5] = flpTM-DmOctβ1 cells loaded with Fluo-4, 100 µM IBMX

| time from light flash to rise in fluorescence (Ca2+ signal) ([1]; cells loaded with 10 µM DEACM-cAMP, light intensities of 80% and 100%, 10 ms flash, 100 µM IBMX) | cAMP released by photolysis ([1]; from 10 µM DEACM-cAMP) | cAMP released by photolysis ([1]; from 30 µM DEACM-cAMP) [µM] | EC50 [2, 4] [µM] | EC50 [2, 5] [µM] | EC50 ([3]; stopped-flow, flpTM-DmOctβ1-GCaMP3.0 cells, mean ± SEM) | EC50 ([3]; stopped-flow, flpTM-DmOctβ1 cells loaded with Fluo-4, mean ± SEM) | SMILES | onset of Ca2+ signals after light flash ([1]; cells loaded with 30 µM DEACM-cAMP, 10 ms flash, 100 µM IBMX) | logEC50 ± SD [2, 4] | logEC50 ± SD [2, 5] | Signal Response Time ([3]; dynamic range (concentrations around EC50), flpTM-DmOctβ1-GCaMP3.0 cells) [s] | Signal Response Time ([3]; dynamic range (concentrations around EC50), flpTM-DmOctβ1 cells loaded with Fluo-4) [s] | Signal Response Time ([3]; saturating concentration, flpTM-DmOctβ1-GCaMP3.0 cells, mean ± SEM) | Signal Response Time ([3]; saturating concentration, flpTM-DmOctβ1 cells loaded with Fluo-4, mean ± SEM) [s] | Signal Response Time ([3]; saturating ligand concentration, flpTM-DmOctβ1 cell lines, Fluo-4 and GCaMP3.0) [s] | saturating ligand concentration ([3]; stopped-flow, flpTM-DmOctβ1 cells loaded with Fluo-4) [µM] |
| --- | --- | --- | --- | --- | --- | --- | --- | --- | --- | --- | --- | --- | --- | --- | --- | --- |
| approximately 60 ms | approximately 2 µM | ~6 |  |  |  |  | CCN(CC)c1ccc2c(COP3(=O)OC[C@H]4O[C@@H](n5cnc6c(N)ncnc65)[C@H](O)[C@@H]4O3)cc(=O)oc2c1 (stereo partly shown) [DEACM-cAMP] | immediately after the light flash; also recorded: immediately after photolysis |  |  |  |  |  |  |  |  |
|  |  |  | 0.1 | 4.5 | 2.1 µM and 2.12 µM | 3.9 µM and 3.92 µM | C=C[C@@]1(C)CC(=O)[C@]2(O)[C@@]3(C)[C@@H](O)CCC(C)(C)[C@@H]3[C@H](OC(=O)CCN(C)C)[C@H](OC(C)=O)[C@@]2(C)O1.Cl [NKH477] |  | −6.91 ± 0.03 | −5.34 ± 0.09 | 40 | 50 | 13 s and 12.70 ± 0.52 s | 13.35 ± 0.82 | 13 | ≥ 100 |
